Test results from ChEMBL document CHEMBL5724914, “Linking interpersonal differences in gut microbiota composition and drug biotransformation activity” (2024).

What was measured:
[1] = (§1) The drug is tested on Z-016 corresponding to mouse gut metagenome with ENA study accession number: PRJEB37062 and ENA sample accession number: ERS12561815 for biotransformation under anaerobic condition. The drug concentrations were measured over 9 timepoints collected between 0 and 24 hours of incubation by liquid-chromatography-coupled mass spectrometry (LC–MS); conditions: 2 µM
[2] = as §1, with “Z-029” for “Z-016”, “rat” for “mouse”, “ERS12561828” for “ERS12561815”; conditions: 2 µM
[3] = human gut metagenome, 24 h, 2 µM
[4] = as §1, with “Z-024” for “Z-016”, “pig” for “mouse”, “ERS12561823” for “ERS12561815”; conditions: 2 µM
[5] = human gut metagenome, 24 h, 2 µM; remark: listed apart in the source
[6] = as §1, with “WLS-038” for “Z-016”, “human” for “mouse”, “ERS12561745” for “ERS12561815”; conditions: 2 µM
[7] = human gut metagenome, 24 h, 2 µM; remark: listed apart in the source
[8] = human gut metagenome, 24 h, 2 µM; remark: listed apart in the source
[9] = as §1, with “Z-019” for “Z-016”, “rat” for “mouse”, “ERS12561818” for “ERS12561815”; conditions: 2 µM
[10] = as §1, with “Z-013” for “Z-016”, “rabbit” for “mouse”, “ERS12561813” for “ERS12561815”; conditions: 2 µM
[11] = human gut metagenome, 24 h, 2 µM; remark: listed apart in the source
[12] = as §1, with “Z-026” for “Z-016”, “to” for “to mouse gut”, “ERS12561825” for “ERS12561815”; conditions: 2 µM
[13] = human gut metagenome, 24 h, 2 µM; remark: listed apart in the source
[14] = as §1, with “Z-011” for “Z-016”, “ERS12561811” for “ERS12561815”; conditions: 2 µM
[15] = as §1, with “Z-017” for “Z-016”, “ERS12561816” for “ERS12561815”; conditions: 2 µM
[16] = as §1, with “Z-027” for “Z-016”, “to” for “to mouse gut”, “ERS12561826” for “ERS12561815”; conditions: 2 µM
[17] = as §1, with “Z-021” for “Z-016”, “to” for “to mouse gut”, “ERS12561820” for “ERS12561815”; conditions: 2 µM
[18] = human gut metagenome, 24 h, 2 µM; remark: listed apart in the source
[19] = as §1, with “WLS-077” for “Z-016”, “human” for “mouse”, “ERS12561750” for “ERS12561815”; conditions: 2 µM
[20] = as §1, with “WLS-350” for “Z-016”, “human” for “mouse”, “ERS12561789” for “ERS12561815”; conditions: 2 µM
Further: call rule not given here.

Structure (SMILES): CC[C@H](C)C(=O)O[C@H]1CCC=C2C=C[C@H](C)[C@H](CC[C@@H]3C[C@@H](O)CC(=O)O3)[C@H]21 [MEVASTATIN]
- Bacterial Biotransformation [1]: Compound NOT metabolized
- Bacterial Biotransformation [2]: Compound NOT metabolized
- Bacterial Biotransformation [3]: Compound NOT metabolized
- Bacterial Biotransformation [4]: Compound NOT metabolized
- Bacterial Biotransformation [5]: Compound metabolized
- Bacterial Biotransformation [6]: Compound metabolized
- Bacterial Biotransformation [7]: Compound NOT metabolized
- Bacterial Biotransformation [8]: Compound NOT metabolized
- Bacterial Biotransformation [9]: Compound NOT metabolized
- Bacterial Biotransformation [10]: Compound NOT metabolized
- Bacterial Biotransformation [11]: Compound metabolized
- Bacterial Biotransformation [12]: Compound metabolized
- Bacterial Biotransformation [13]: Compound metabolized
- Bacterial Biotransformation [14]: Compound NOT metabolized
- Bacterial Biotransformation [15]: Compound metabolized
- Bacterial Biotransformation [16]: Compound NOT metabolized
- Bacterial Biotransformation [17]: Compound NOT metabolized
- Bacterial Biotransformation [18]: Compound NOT metabolized
- Bacterial Biotransformation [19]: Compound NOT metabolized
- Bacterial Biotransformation [20]: Compound NOT metabolized

Structure (SMILES): COc1ccc2cc([C@H](C)C(=O)O)ccc2c1 [NAPROXEN]
- Bacterial Biotransformation [1]: Compound NOT metabolized
- Bacterial Biotransformation [2]: Compound NOT metabolized
- Bacterial Biotransformation [3]: Compound metabolized
- Bacterial Biotransformation [4]: Compound NOT metabolized
- Bacterial Biotransformation [5]: Compound metabolized
- Bacterial Biotransformation [6]: Compound NOT metabolized
- Bacterial Biotransformation [7]: Compound NOT metabolized
- Bacterial Biotransformation [8]: Compound NOT metabolized
- Bacterial Biotransformation [9]: Compound NOT metabolized
- Bacterial Biotransformation [10]: Compound NOT metabolized
- Bacterial Biotransformation [11]: Compound metabolized
- Bacterial Biotransformation [12]: Compound NOT metabolized
- Bacterial Biotransformation [13]: Compound metabolized
- Bacterial Biotransformation [14]: Compound NOT metabolized
- Bacterial Biotransformation [15]: Compound NOT metabolized
- Bacterial Biotransformation [16]: Compound NOT metabolized
- Bacterial Biotransformation [17]: Compound NOT metabolized
- Bacterial Biotransformation [18]: Compound NOT metabolized
- Bacterial Biotransformation [19]: Compound NOT metabolized
- Bacterial Biotransformation [20]: Compound metabolized

Structure (SMILES): C#C[C@]1(OC(C)=O)CC[C@H]2[C@@H]3CCC4=C/C(=N/O)CC[C@@H]4[C@H]3CC[C@@]21CC [NORGESTIMATE]
- Bacterial Biotransformation [1]: Compound NOT metabolized
- Bacterial Biotransformation [2]: Compound metabolized
- Bacterial Biotransformation [3]: Compound metabolized
- Bacterial Biotransformation [4]: Compound NOT metabolized
- Bacterial Biotransformation [5]: Compound metabolized
- Bacterial Biotransformation [6]: Compound metabolized
- Bacterial Biotransformation [7]: Compound metabolized
- Bacterial Biotransformation [8]: Compound NOT metabolized
- Bacterial Biotransformation [9]: Compound NOT metabolized
- Bacterial Biotransformation [10]: Compound NOT metabolized
- Bacterial Biotransformation [11]: Compound metabolized
- Bacterial Biotransformation [12]: Compound NOT metabolized
- Bacterial Biotransformation [13]: Compound NOT metabolized
- Bacterial Biotransformation [14]: Compound NOT metabolized
- Bacterial Biotransformation [15]: Compound NOT metabolized
- Bacterial Biotransformation [16]: Compound NOT metabolized
- Bacterial Biotransformation [17]: Compound NOT metabolized
- Bacterial Biotransformation [18]: Compound metabolized
- Bacterial Biotransformation [19]: Compound metabolized
- Bacterial Biotransformation [20]: Compound metabolized

Structure (SMILES): COc1ccnc(C[S+]([O-])c2nc3ccc(OC(F)F)cc3[nH]2)c1OC (stereo not given) [PANTOPRAZOLE]
- Bacterial Biotransformation [1]: Compound metabolized
- Bacterial Biotransformation [2]: Compound metabolized
- Bacterial Biotransformation [3]: Compound metabolized
- Bacterial Biotransformation [4]: Compound metabolized
- Bacterial Biotransformation [5]: Compound metabolized
- Bacterial Biotransformation [6]: Compound metabolized
- Bacterial Biotransformation [7]: Compound metabolized
- Bacterial Biotransformation [8]: Compound metabolized
- Bacterial Biotransformation [9]: Compound metabolized
- Bacterial Biotransformation [10]: Compound metabolized
- Bacterial Biotransformation [11]: Compound metabolized
- Bacterial Biotransformation [12]: Compound metabolized
- Bacterial Biotransformation [13]: Compound metabolized
- Bacterial Biotransformation [14]: Compound metabolized
- Bacterial Biotransformation [15]: Compound metabolized
- Bacterial Biotransformation [16]: Compound metabolized
- Bacterial Biotransformation [17]: Compound metabolized
- Bacterial Biotransformation [18]: Compound metabolized
- Bacterial Biotransformation [19]: Compound metabolized
- Bacterial Biotransformation [20]: Compound metabolized

Structure (SMILES): CN(CCOc1ccc(CC2SC(=O)NC2=O)cc1)c1ccccn1.O=C(O)/C=C\C(=O)O (stereo not given) [ROSIGLITAZONE MALEATE]
- Bacterial Biotransformation [1]: Compound NOT metabolized
- Bacterial Biotransformation [2]: Compound NOT metabolized
- Bacterial Biotransformation [3]: Compound NOT metabolized
- Bacterial Biotransformation [4]: Compound NOT metabolized
- Bacterial Biotransformation [5]: Compound metabolized
- Bacterial Biotransformation [6]: Compound NOT metabolized
- Bacterial Biotransformation [7]: Compound metabolized
- Bacterial Biotransformation [8]: Compound NOT metabolized
- Bacterial Biotransformation [9]: Compound NOT metabolized
- Bacterial Biotransformation [10]: Compound NOT metabolized
- Bacterial Biotransformation [11]: Compound metabolized
- Bacterial Biotransformation [12]: Compound NOT metabolized
- Bacterial Biotransformation [13]: Compound metabolized
- Bacterial Biotransformation [14]: Compound NOT metabolized
- Bacterial Biotransformation [15]: Compound NOT metabolized
- Bacterial Biotransformation [16]: Compound NOT metabolized
- Bacterial Biotransformation [17]: Compound NOT metabolized
- Bacterial Biotransformation [18]: Compound NOT metabolized
- Bacterial Biotransformation [19]: Compound NOT metabolized
- Bacterial Biotransformation [20]: Compound metabolized

Structure (SMILES): CC(C)c1nc(N(C)S(C)(=O)=O)nc(-c2ccc(F)cc2)c1/C=C/[C@@H](O)C[C@@H](O)CC(=O)[O-].CC(C)c1nc(N(C)S(C)(=O)=O)nc(-c2ccc(F)cc2)c1/C=C/[C@@H](O)C[C@@H](O)CC(=O)[O-].[Ca+2] [ROSUVASTATIN CALCIUM]
- Bacterial Biotransformation [1]: Compound NOT metabolized
- Bacterial Biotransformation [2]: Compound NOT metabolized
- Bacterial Biotransformation [3]: Compound NOT metabolized
- Bacterial Biotransformation [4]: Compound NOT metabolized
- Bacterial Biotransformation [5]: Compound metabolized
- Bacterial Biotransformation [6]: Compound NOT metabolized
- Bacterial Biotransformation [7]: Compound NOT metabolized
- Bacterial Biotransformation [8]: Compound NOT metabolized
- Bacterial Biotransformation [9]: Compound NOT metabolized
- Bacterial Biotransformation [10]: Compound NOT metabolized
- Bacterial Biotransformation [11]: Compound metabolized
- Bacterial Biotransformation [12]: Compound NOT metabolized
- Bacterial Biotransformation [13]: Compound metabolized
- Bacterial Biotransformation [14]: Compound NOT metabolized
- Bacterial Biotransformation [15]: Compound NOT metabolized
- Bacterial Biotransformation [16]: Compound NOT metabolized
- Bacterial Biotransformation [17]: Compound NOT metabolized
- Bacterial Biotransformation [18]: Compound NOT metabolized
- Bacterial Biotransformation [19]: Compound metabolized
- Bacterial Biotransformation [20]: Compound metabolized

Structure (SMILES): C=CC[C@@H]1/C=C(\C)C[C@H](C)C[C@H](OC)[C@H]2O[C@@](O)(C(=O)C(=O)N3CCCC[C@H]3C(=O)O[C@H](/C(C)=C/[C@@H]3CC[C@@H](O)[C@H](OC)C3)[C@H](C)[C@@H](O)CC1=O)[C@H](C)C[C@@H]2OC.O [TACROLIMUS]
- Bacterial Biotransformation [1]: Compound NOT metabolized
- Bacterial Biotransformation [2]: Compound NOT metabolized
- Bacterial Biotransformation [3]: Compound metabolized
- Bacterial Biotransformation [4]: Compound NOT metabolized
- Bacterial Biotransformation [5]: Compound metabolized
- Bacterial Biotransformation [6]: Compound metabolized
- Bacterial Biotransformation [7]: Compound metabolized
- Bacterial Biotransformation [8]: Compound metabolized
- Bacterial Biotransformation [9]: Compound NOT metabolized
- Bacterial Biotransformation [10]: Compound NOT metabolized
- Bacterial Biotransformation [11]: Compound metabolized
- Bacterial Biotransformation [12]: Compound NOT metabolized
- Bacterial Biotransformation [13]: Compound metabolized
- Bacterial Biotransformation [14]: Compound NOT metabolized
- Bacterial Biotransformation [15]: Compound NOT metabolized
- Bacterial Biotransformation [16]: Compound NOT metabolized
- Bacterial Biotransformation [17]: Compound NOT metabolized
- Bacterial Biotransformation [18]: Compound NOT metabolized
- Bacterial Biotransformation [19]: Compound metabolized
- Bacterial Biotransformation [20]: Compound NOT metabolized

Structure (SMILES): CCS(=O)(=O)CCn1c([N+](=O)[O-])cnc1C [TINIDAZOLE]
- Bacterial Biotransformation [1]: Compound metabolized
- Bacterial Biotransformation [2]: Compound metabolized
- Bacterial Biotransformation [3]: Compound metabolized
- Bacterial Biotransformation [4]: Compound metabolized
- Bacterial Biotransformation [5]: Compound metabolized
- Bacterial Biotransformation [6]: Compound metabolized
- Bacterial Biotransformation [7]: Compound metabolized
- Bacterial Biotransformation [8]: Compound metabolized
- Bacterial Biotransformation [9]: Compound metabolized
- Bacterial Biotransformation [10]: Compound metabolized
- Bacterial Biotransformation [11]: Compound metabolized
- Bacterial Biotransformation [12]: Compound metabolized
- Bacterial Biotransformation [13]: Compound metabolized
- Bacterial Biotransformation [14]: Compound metabolized
- Bacterial Biotransformation [15]: Compound metabolized
- Bacterial Biotransformation [16]: Compound metabolized
- Bacterial Biotransformation [17]: Compound metabolized
- Bacterial Biotransformation [18]: Compound metabolized
- Bacterial Biotransformation [19]: Compound metabolized
- Bacterial Biotransformation [20]: Compound metabolized
